Assay results: patent US20190382827A1, “USE OF MICROBIAL METABOLITES FOR TREATING DISEASES” (Yeda Research and Development Co. Ltd., priority 2015, published 2019)
Entries after “also recorded” stand apart in the source; their conditions may differ.

Tested on: DSS colitis
Assay: DSS colitis
Type: in vivo, mouse
Protocol: For IL-18 rescue experiments, recombinant IL-18 (MBL, Cat#B004-2) was injected intraperitoneally at a concentration of 1 μg per mouse for 5 days, and not injected for 2 days prior to DSS treatment. IL-18 injection to Swiss Webster germ-free mice and Nlrp6^−/− mice was performed twice a day for 3 days, while the mice were kept sterile using a cage-autonomous system (Hecht et al., 2014).
Mice were treated with 1.5% (w/v) DSS (M.W.=36,000-50,000 Da; MP Biomedicals) in their drinking water for 7 days followed by regular access to water. The animals were weighed daily and monitored for signs of distress as well as rectal bleeding.
For DSS rescue experiments, mice were receiving taurine in the drinking water prior to DSS treatment in a concentration of 100 mg/ml for 14 days.
Colonoscopy was performed using a high-resolution mouse video endoscopic system (Carl Storz, Tuttlingen, Germany). The severity of colitis was blindly scored using MEICS (Murine Endoscopic Index of Colitis Severity), which is based on five parameters: granularity of mucosal surface; vascular pattern; translucency of the colon mucosa; visible fibrin; and stool consistency (Becker et al., 2006).
On the day of the assay, 4 kDa fluorescein isothiocyanate (FITC)-dextran was dissolved in phosphate buffered saline (PBS) to a concentration of 80 mg ml^−1. Mice were fasted for 4 hours prior to gavage with 150 μl dextran. Mice were anesthetized 3 hours following gavage and blood was collected, centrifuged at 1,000×g for 12 min at 4° C. Serum was collected and fluorescence was quantified at an excitation wavelength of 485 nm and 535 nm emission wavelength.
DNA was extracted from liver samples (using MoBio PowerSoil kit). DNA concentration was calculated using a standard curve of known DNA concentrations from E. coli K12. 16S qPCR using primers identifying different regions of the V6 16S gene was performed using Kappa SYBR fast mix.
Absolute number of bacteria in the samples was then approximated as DNA amount in a sample/DNA molecule mass of bacteria.

[1] = WT mice, DSS colitis, taurine in drinking water
[2] = WT mice, taurine in drinking water for two weeks, then DSS colitis

Row | SMILES | beneficial effects on DSS colitis (GF WT mice) | beneficial effects on DSS colitis (WT mice treated with broad-spectrum antibiotics) | hepatic bacterial load [1] | systemic FITC-dextran influx [1] | epithelial tight junction integrity (WT mice, DSS colitis, taurine in drinking water, ZO-1 staining) | beneficial effects on DSS colitis (WT mice, taurine administration stopped before induction of DSS colitis) | colitis severity [2] | weight loss [2] | survival (WT mice, taurine in drinking water, DSS) | beneficial effects on DSS colitis (mice lacking either ASC or NLRP6) | exacerbation of DSS colitis (WT mice concomitantly treated with antibiotics) | DSS colitis (WT mice, histamine treatment)
1 | NCCS(=O)(=O)O [taurine] | failed to have beneficial effects | failed to have beneficial effects | decreased | reduced | sustained | beneficial effects were also observed | ameliorated; also recorded: reduced | improved | enhanced | failed to have beneficial effects | – | –
2 | NCCc1c[nH]cn1 [histamine] | – | – | – | – | – | – | – | – | – | – | prevented | exacerbated
